± gives the standard deviation of the averaged measurements.
Tests used:
UT-SCC-40 = assay: maximal % inhibition of viability relative to DMSO; higher = stronger effect; details: treatment time: 3 days
Procedure: (§1)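 HNSCC cell lines (500 cells/well, 384-well) were cultured on plastic, on top of (2D) or embedded (3D) in Matrigel or human leiomyoma matrix Myogel (500 ug/mL; Myogel 3D mixed with rat collagen I). Cells were treated for 3 days with 5 ten-fold concentrations of each drug, and viability was read by CellTiter-Glo. Viability was normalised to DMSO and benzethonium chloride controls and fitted with the FIMM DSRT pipeline to give IC50 (nM), maximal % inhibition and DSS. Suffixes _1/_2/_3 are replicates. Only inhibition-mode (IC50) fits are kept.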

UT-SCC-42B = assay: as above; details: treatment time: 3 days
Procedure: as §1

UT-SCC-24B [1] = assay: as above; details: treatment time: 3 days
Procedure: as §1

UT-SCC-14 [2] = assay: as above; details: treatment time: 3 days
Procedure: as §1

UT-SCC-8 [3] = assay: as above; details: treatment time: 3 days
Procedure: as §1

UT-SCC-73 = assay: as above; details: treatment time: 3 days
Procedure: as §1

UT-SCC-42A [4] = assay: as above; details: treatment time: 3 days
Procedure: as §1

UT-SCC-44 = assay: as above; details: treatment time: 3 days
Procedure: as §1

UT-SCC-81 [5] = assay: as above; details: treatment time: 3 days
Procedure: as §1

UT-SCC-106A = assay: as above; details: treatment time: 3 days
Procedure: as §1

UT-SCC-28 [6] = assay: as above; details: treatment time: 3 days
Procedure: as §1

UT-SCC-24B [7] = assay: relative IC50 (midpoint of the fitted curve; maximal inhibition may be below 50%); higher = less potent; details: culture condition: on top of Myogel; treatment time: 3 days
How it was run: (§2)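 Viability was read with CellTiter-Glo 2.0 luminescence and scaled against vehicle (0.1% DMSO) and cell-killing control wells. The assay used HPV-negative HNSCC cell lines at 500 cells/well in 384-well plates, grown on plastic, on Matrigel or Myogel coatings (500 µg/mL), or embedded in Matrigel or Myogel plus rat collagen I, and treated for 3 days at five 10-fold concentrations. IC50, maximal inhibition and drug sensitivity score were derived from percent-inhibition dose–response curves fitted in the FIMM pipeline.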

UT-SCC-14 [8] = assay: as above; details: treatment time: 3 days
How it was run: as §2

UT-SCC-8 [9] = assay: as above; details: treatment time: 3 days
How it was run: as §2

UT-SCC-42A [10] = assay: as above; details: treatment time: 3 days
How it was run: as §2

UT-SCC-81 [11] = assay: as above; details: treatment time: 3 days
How it was run: as §2

UT-SCC-28 [12] = assay: as above; details: culture condition: plastic 2D (no matrix); treatment time: 3 days
How it was run: as §2

[13] = culture condition: embedded in Matrigel
[14] = culture condition: embedded in Myogel + collagen I
[15] = culture condition: on top of Matrigel
[16] = culture condition: on top of Myogel
[17] = culture condition: plastic 2D (no matrix)

CO[C@H]1C[C@@H]2CC[C@@H](C)[C@@](O)(O2)C(=O)C(=O)N2CCCC[C@H]2C(=O)O[C@H]([C@H](C)C[C@@H]2CC[C@@H](OC(=O)C(C)(CO)CO)[C@H](OC)C2)CC(=O)[C@H](C)/C=C(\C)[C@@H](O)[C@@H](OC)C(=O)[C@H](C)C[C@H](C)/C=C/C=C/C=C/1C [Temsirolimus]
maximal % inhibition of viability (UT-SCC-40; [13]): 33.9 ± 13% | maximal % inhibition of viability (UT-SCC-40; [14]): 40.5 ± 20% | maximal % inhibition of viability (UT-SCC-40; [15]): 24.6 ± 6.1% | maximal % inhibition of viability (UT-SCC-40; [16]): 21.9 ± 3.2% | maximal % inhibition of viability (UT-SCC-40; [17]): 22.1 ± 2.3% | maximal % inhibition of viability (UT-SCC-42B; [13]): 25.8 ± 20% | maximal % inhibition of viability (UT-SCC-42B; [15]): 17.6 ± 6.1% | maximal % inhibition of viability (UT-SCC-42B; [16]): 9.87 ± 4.1% | maximal % inhibition of viability (UT-SCC-42B; [17]): 15.3 ± 3.6% | maximal % inhibition of viability (UT-SCC-24B [1]; [13]): 25.8 ± 7.9% | maximal % inhibition of viability (UT-SCC-24B [1]; [14]): 42.2 ± 4% | maximal % inhibition of viability (UT-SCC-24B [1]; [15]): 27.4 ± 4.7% | maximal % inhibition of viability (UT-SCC-24B [1]; [16]): 32.7 ± 1.8% | maximal % inhibition of viability (UT-SCC-24B [1]; [17]): 29.7 ± 5.7% | maximal % inhibition of viability (UT-SCC-14 [2]; [13]): 53.5 ± 4.4% | maximal % inhibition of viability (UT-SCC-14 [2]; [14]): 52.5 ± 4.8% | maximal % inhibition of viability (UT-SCC-14 [2]; [15]): 50.5 ± 2.5% | maximal % inhibition of viability (UT-SCC-14 [2]; [16]): 45.4 ± 4.4% | maximal % inhibition of viability (UT-SCC-14 [2]; [17]): 46.3 ± 8.9% | maximal % inhibition of viability (UT-SCC-8 [3]; [13]): 41.8 ± 4.6% | maximal % inhibition of viability (UT-SCC-8 [3]; [14]): 31.4 ± 11% | maximal % inhibition of viability (UT-SCC-8 [3]; [15]): 38.9 ± 9.9% | maximal % inhibition of viability (UT-SCC-8 [3]; [16]): 48.1 ± 8.7% | maximal % inhibition of viability (UT-SCC-8 [3]; [17]): 42.3 ± 5.6% | maximal % inhibition of viability (UT-SCC-73; [13]): 32 ± 6.7% | maximal % inhibition of viability (UT-SCC-73; [14]): 38.7 ± 21% | maximal % inhibition of viability (UT-SCC-73; [15]): 29.7 ± 3.1% | maximal % inhibition of viability (UT-SCC-73; [16]): 34.5 ± 1.6% | maximal % inhibition of viability (UT-SCC-73; [17]): 24 ± 6.6% | maximal % inhibition of viability (UT-SCC-42A [4]; [13]): 35 ± 6.8% | maximal % inhibition of viability (UT-SCC-42A [4]; [14]): 39.1 ± 4.7% | maximal % inhibition of viability (UT-SCC-42A [4]; [15]): 41 ± 2.4% | maximal % inhibition of viability (UT-SCC-42A [4]; [16]): 37.4 ± 3.1% | maximal % inhibition of viability (UT-SCC-42A [4]; [17]): 39.6 ± 2.3% | maximal % inhibition of viability (UT-SCC-44; [13]): 29.4 ± 1.9% | maximal % inhibition of viability (UT-SCC-44; [14]): 38.9 ± 6.9% | maximal % inhibition of viability (UT-SCC-44; [15]): 38.4 ± 1.5% | maximal % inhibition of viability (UT-SCC-44; [16]): 38.6 ± 4% | maximal % inhibition of viability (UT-SCC-44; [17]): 35 ± 1.3% | maximal % inhibition of viability (UT-SCC-81 [5]; [13]): 63.3 ± 16% | maximal % inhibition of viability (UT-SCC-81 [5]; [14]): 56.5 ± 6% | maximal % inhibition of viability (UT-SCC-81 [5]; [15]): 44.6 ± 5.2% | maximal % inhibition of viability (UT-SCC-81 [5]; [16]): 54.3 ± 0.82% | maximal % inhibition of viability (UT-SCC-81 [5]; [17]): 49.7 ± 7.5% | maximal % inhibition of viability (UT-SCC-106A; [13]): 36.2 ± 2.6% | maximal % inhibition of viability (UT-SCC-106A; [14]): 33.9 ± 5.5% | maximal % inhibition of viability (UT-SCC-106A; [15]): 36.4 ± 0.4% | maximal % inhibition of viability (UT-SCC-106A; [16]): 25.1 ± 1.4% | maximal % inhibition of viability (UT-SCC-106A; [17]): 39.8 ± 5% | maximal % inhibition of viability (UT-SCC-28 [6]; [13]): 29.7 ± 9.9% | maximal % inhibition of viability (UT-SCC-28 [6]; [14]): 37.2 ± 7.1% | maximal % inhibition of viability (UT-SCC-28 [6]; [15]): 38 ± 2.7% | maximal % inhibition of viability (UT-SCC-28 [6]; [17]): 35.3 ± 4.3% | relative IC50 (UT-SCC-24B [7]): 1 nM | relative IC50 (UT-SCC-14 [8]; [13]): 0.458 nM | relative IC50 (UT-SCC-14 [8]; [14]): 0.654 nM | relative IC50 (UT-SCC-14 [8]; [15]): 0.765 nM | relative IC50 (UT-SCC-14 [8]; [16]): 0.33 nM | relative IC50 (UT-SCC-14 [8]; [17]): 0.458 nM | relative IC50 (UT-SCC-8 [9]; [13]): 0.997 nM | relative IC50 (UT-SCC-8 [9]; [16]): 0.785 nM | relative IC50 (UT-SCC-8 [9]; [17]): 0.669 nM | relative IC50 (UT-SCC-42A [10]; [13]): 5.49 nM | relative IC50 (UT-SCC-42A [10]; [16]): 2.26 nM | relative IC50 (UT-SCC-42A [10]; [17]): 7.63 nM | relative IC50 (UT-SCC-81 [11]; [15]): 1.13 nM | relative IC50 (UT-SCC-81 [11]; [16]): 0.543 nM | relative IC50 (UT-SCC-81 [11]; [17]): 0.857 nM | relative IC50 (UT-SCC-28 [12]): 0.519 nM
